# Data from US20260000670A1 (priority 2022, published 2026).
# Experiments:
# murine splenocytes = test: AAV8-dependent cytokine and chemokine release by murine splenocytes; format: cell-based, C57BL/6 mouse; details: dasatinib 100 nM, 50 nM or 12.5 nM; 24 hrs, AAV8-hSeap MOI 1E5
# Protocol: Splenocytes were isolated from a C57/B16 mouse and incubated for 24 hrs with AAV8-hSeap at MOI 1E5 in the presence or absence of dasatinib (100 nM, 50 nM or 12.5 nM). Cytokines and chemokines were measured in the culture supernatants. LPS (positive) and PBS (negative) controls are shown on the graphs. Means+/−SD (triplicates). Dashed line: Lower limit of quantification.
# To investigate the mechanism of dasatinib-mediated inhibition of the humoral response to AAV8 observed in mice (Examples 1 and 5), we looked whether the rapid production of cytokines and chemokines by immune cells was affected by the dasatinib treatment. Total splenocytes from a C57BL/6 mouse were cultured for 24 hrs in the presence or absence of dasatinib at different concentrations. Cytokines and chemokines secreted in the culture supernatants were analyzed using ProcartaPlex Immunoassays (Luminex).
# mice [1] = test: anti-AAV8 IgM and IgG titers, 1-week vs 2-week dasatinib treatment in mice; format: in vivo
# Protocol: (§1) FIG. 7: In vivo study to assess the impact of prolonging the dasatinib treatment. All mouse groups, except Group 1, were immunized on day 1 with an i.v. injection of AAV8-hSeap (1e12 vg/kg). Four groups received an i.v. injection of AAV8-FactorIX (3e13 vg/kg) on day 43. Concomitantly to the first AAV administration, Groups 3 and 4 were treated with dasatinib for either 1 or 2 weeks, respectively. Dasatinib was administered at the dose of 50 mg/kg per oral gavage, twice per day and starting 1 hr before the first AAV treatment.
# (§2) FIGS. 8A-8B: Prolongation of dasatinib treatment from 1 week to 2 weeks improves the inhibition of IgM formation to AAV8. In the experiment described in FIG. 8A and FIG. 8B anti-AAV8 IgM titers (median+/−SD) were measured in each mouse group from day 0 (before AAV8-hSeap administration) to day 64, as described for FIGS. 2A-2C. Each circle represents an individual IgM titer.
# as §2, with “9A-9B:” for “8A-8B:”, “IgG” for “IgM”, “9A” for “8A”, “9B,” for “8B”, “3A-3C.” for “2A-2C.”
# In the experiment described in Example 1, despite the strong inhibition of anti-AAV antibody formation observed in most of the mice, 4 out of 10 dasatinib-treated animals started to develop anti-AAV8 IgG before re-dosing (FIG. 3C, days 15-21). The presence of residual AAV8 particles in the circulation and in the tissues after the cessation of the dasatinib treatment might lead to this antibody formation. […] To this purpose, the same protocol was applied as in Example 1, but using either a 1-week or a 2-week dasatinib treatment. In addition, re-dosing was performed at a later time point (day 43 instead of day 22) to be able to observe potential antibody formation after the cessation of dasatinib treatment. This protocol is depicted in FIG. 7.
# Circulating IgM and IgG directed against the AAV8 capsid were titrated in the serum samples (FIGS. 8A-8B and 9A-9B). The peaks of anti-AAV8 IgM were observed one week after first rAAV8 dosing, on day 8 for the immunized control Group 2 and on day 50 for the non-immunized control Group 1 (10/10 mice above the threshold) (FIGS. 8A-8B). […] Inhibition of IgM production was stronger in Group 4, treated with dasatinib for 2 weeks.
# [2] = test system: PBMCs from human heathy donors; test: FluoroSpot T cell responses of PBMCs to AAV2 and AAV9 capsid peptide pools; format: cell-based; details: 100 nM dasatinib, 48 hrs, two donors
# Protocol: FIGS. 12A-12B: Dasatinib treatment reduces T cell responses to AAV2 and AAV9 in vitro. PBMCs from human heathy donors were stimulated with peptide pools covering the AAV2 and AAV9 capsid sequences in the absence (black bars) or presence of 100 nM dasatinib (grey bars). After 48 hrs, IFN-γ- and TNF-α secreting cells were measured by Fluorospot. Mean Spot-Forming Cellsmedian+/−SD are shown for 1E6 PBMCs. Dotted line: Positivity threshold.
# An important question was its potential effect on the cellular adaptive immune response. T cell responses to rAAV have been reported to induce the clearance of AAV-transduced cells and thereby decrease the duration of transgene expression. It is also known that T cell responses to AAV can mediate liver toxicities in the clinic. T cell responses to AAV can be measured in healthy human blood donors who have previously been infected with wild-type AAV. FluoroSpot assays reveal the proportions of IFN-y-and TNF-a-producing PBMCs induced upon incubation with pools of AAV capsid peptides. We used this assay to assess the response of PBMCs from two healthy blood donors to three different peptide pools covering the capsid sequences of AAV2 and AAV9 (FIGS. 12A-12B). […] Donor 2 had positive IFN-γ and/or TNF-α responses to AAV9 pools 2 and 3. All these responses were inhibited in the presence of 100 nM dasatinib.
# mice [3] = test: hFIX transgene expression after re-dosing, 1-week vs 2-week dasatinib treatment; format: in vivo
# Protocol: as §1
# FIG. 10: Prolongation of dasatinib treatment upon first AAV8 dosing improves transgene expression after readministration. In the experiment described in FIG. 10, the levels of hFIX expression (ng/mL, median+/−SD) were measured for each group, starting on day 42 (one day before administration of AAV8-hFIX) and up to day 64.
# In the experiment described in Example 1, despite the strong inhibition of anti-AAV antibody formation observed in most of the mice, 4 out of 10 dasatinib-treated animals started to develop anti-AAV8 IgG before re-dosing (FIG. 3C, days 15-21). […]
# The inhibition of antibody formation to AAV8 correlated with the improvement of hFIX transgene expression after re-dosing, showing efficient transduction by the second AAV8(FIG. 10). Expression of hFIX was inversely correlated with the IgG and IgM titers measured on day 42 before re-dosing.
# [4] = Group 4, dasatinib for 2 weeks, day 42
compound,measurement,setting,value
"Cc1nc(Nc2ncc(C(=O)Nc3c(C)cccc3Cl)s2)cc(N2CCN(CCO)CC2)n1 [dasatinib, N-(2-chloro-6-methylphenyl)-2-[[6-[4-(2-hydroxyethyl)-1-piperazinyl]-2-methyl-4-pyrimidinyl]amino]-5-thiazole carboxamide monohydrate]",IL-6 in culture supernatant,murine splenocytes,dose-dependent decreases
same,IP-10/CXCL10 in culture supernatant,murine splenocytes,dose-dependent decreases
same,MCP-1 in culture supernatant,murine splenocytes,dose-dependent decreases
same,MCP-3 in culture supernatant,murine splenocytes,dose-dependent decreases
same,MIP-1α in culture supernatant,murine splenocytes,dose-dependent decreases
same,MIP-1β in culture supernatant,murine splenocytes,dose-dependent decreases
same,MIP-2α in culture supernatant,murine splenocytes,dose-dependent decreases
same,TNF-α in culture supernatant,murine splenocytes,dose-dependent decreases
same,anti-AAV8 IgM titers until administration of the second rAAV8,"mice [1]; Group 3, dasatinib 50 mg/kg oral twice per day for 1 week",remained low to negative
same,mice with negative anti-AAV8 IgG titers,"mice [1]; Group 3, dasatinib for 1 week, day 42",3/15
same,mice with positive IgM titers to AAV8,"mice [1]; Group 3, dasatinib for 1 week, day 42 before AAV8 re-dosing",Four out of 15
same,inhibition of IgM production compared with 1-week treatment,"mice [1]; Group 4, dasatinib for 2 weeks",stronger
same,mice with IgG titers below the positivity threshold,mice [1]; [4],5/15
same,mice with positive IgM titer,mice [1]; [4],one
same,median anti-AAV8 IgG titer,"mice [1]; Group 4, dasatinib for 2 weeks, day 42, compared with 1-week Group 3",much lower than in Group 3
same,anti-AAV8 IgG titers after rAAV8 re-administration,"mice [1]; day 64, 3 weeks after rAAV8 re-administration",comparable in all mouse groups
same,IFN-γ responses (secreting cells) to AAV9 peptide pools,[2],inhibited
same,TNF-α responses (secreting cells) to AAV2 and AAV9 peptide pools,[2],inhibited
same,"expression of hFIX, 2-week treatment compared with 1-week treatment","mice [3]; Group 4 (2 weeks) vs Group 3 (1 week), after AAV8-FactorIX 3e13 vg/kg on day 43",higher
same,hFIX levels in mice that remained IgG-negative on day 42,"mice [3]; day 64, dasatinib-treated mice",in the range of those measured in the non-immunized control Group 1
